Source: the supplement of paper PMC10307832

Key:
Test in all cases: relative viability (nuclei count vs DMSO), 5 days (fraction); higher = more cells survive
Everolimus = compound: CO[C@H]1C[C@@H]2CC[C@@H](C)[C@@](O)(O2)C(=O)C(=O)N2CCCC[C@H]2C(=O)O[C@H]([C@H](C)C[C@@H]2CC[C@@H](OCCO)[C@H](OC)C2)CC(=O)[C@H](C)/C=C(\C)[C@@H](O)[C@@H](OC)C(=O)[C@H](C)C[C@H](C)/C=C/C=C/C=C/1C [Everolimus]
How it was run: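 After an overnight hold at 37 °C, lung cancer cell lines in 1536-well plates were pinned with five library-drug doses (not always all listed), each √10 from the next, on vehicle-anchored plates. The cells stayed 5 days without fresh medium, then a one-step fix, permeabilisation and Hoechst stain preceded 4× imaging and MetaXpress nuclear counts. A plate passed only with control CV under 25% and at least one doubling. Viability is the median, over plates, of treated-well nuclei relative to vehicle-well nuclei.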

Everolimus + Trametinib = compound: CO[C@H]1C[C@@H]2CC[C@@H](C)[C@@](O)(O2)C(=O)C(=O)N2CCCC[C@H]2C(=O)O[C@H]([C@H](C)C[C@@H]2CC[C@@H](OCCO)[C@H](OC)C2)CC(=O)[C@H](C)/C=C(\C)[C@@H](O)[C@@H](OC)C(=O)[C@H](C)C[C@H](C)/C=C/C=C/C=C/1C [Everolimus] + CC(=O)Nc1cccc(-n2c(=O)n(C3CC3)c(=O)c3c(Nc4ccc(I)cc4F)n(C)c(=O)c(C)c32)c1 [Trametinib] (partner 0.02 µM)
How it was run: (§1)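 After 5 days of treatment, lung cancer cells in 1536-well plates were fixed and stained in a single step (final 0.05% Triton X-100, 1% formaldehyde, 1 ug/ml Hoechst) and their nuclei counted on 4× images. Treatment had been applied by pin tool the day after seeding as one drug alone or as a fixed anchor-drug dose with five library-drug doses (not always all listed) in √10 steps. Relative viability is the nuclei count of treated wells divided by that of vehicle wells, and values are medians of duplicate plates.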

Everolimus + Phenformin = compound: CO[C@H]1C[C@@H]2CC[C@@H](C)[C@@](O)(O2)C(=O)C(=O)N2CCCC[C@H]2C(=O)O[C@H]([C@H](C)C[C@@H]2CC[C@@H](OCCO)[C@H](OC)C2)CC(=O)[C@H](C)/C=C(\C)[C@@H](O)[C@@H](OC)C(=O)[C@H](C)C[C@H](C)/C=C/C=C/C=C/1C [Everolimus] + N=C(N)NC(=N)NCCc1ccccc1 [Phenformin] (partner 250 µM)
How it was run: as §1

Everolimus + OSI-027 = compound: CO[C@H]1C[C@@H]2CC[C@@H](C)[C@@](O)(O2)C(=O)C(=O)N2CCCC[C@H]2C(=O)O[C@H]([C@H](C)C[C@@H]2CC[C@@H](OCCO)[C@H](OC)C2)CC(=O)[C@H](C)/C=C(\C)[C@@H](O)[C@@H](OC)C(=O)[C@H](C)C[C@H](C)/C=C/C=C/C=C/1C [Everolimus] + COc1cccc2cc(-c3nc([C@H]4CC[C@H](C(=O)O)CC4)n4ncnc(N)c34)[nH]c12 [OSI-027] (partner 0.5 µM)
How it was run: as §1

Cell Line | relative viability (Everolimus; 0.01 µM) | relative viability (Everolimus; 0.03162 µM) | relative viability (Everolimus; 0.1 µM) | relative viability (Everolimus; 0.3162 µM) | relative viability (Everolimus; 1 µM) | relative viability (Everolimus + Trametinib; first compound 0.01 µM) | relative viability (Everolimus + Trametinib; first compound 0.03162 µM) | relative viability (Everolimus + Trametinib; first compound 0.1 µM) | relative viability (Everolimus + Trametinib; first compound 0.3162 µM) | relative viability (Everolimus + Trametinib; first compound 1 µM) | relative viability (Everolimus + Phenformin; first compound 0.01 µM) | relative viability (Everolimus + Phenformin; first compound 0.03162 µM) | relative viability (Everolimus + Phenformin; first compound 0.1 µM) | relative viability (Everolimus + Phenformin; first compound 0.3162 µM) | relative viability (Everolimus + Phenformin; first compound 1 µM) | relative viability (Everolimus + OSI-027; first compound 0.01 µM) | relative viability (Everolimus + OSI-027; first compound 0.03162 µM) | relative viability (Everolimus + OSI-027; first compound 0.1 µM) | relative viability (Everolimus + OSI-027; first compound 0.3162 µM) | relative viability (Everolimus + OSI-027; first compound 1 µM)
NCI-H1993 | 0.675 | 0.61 | 0.596 | 0.685 | 0.626 | 0.423 | 0.469 | 0.486 | 0.464 | 0.536 | 0.525 | 0.498 | 0.533 | 0.468 | 0.454 | 0.566 | 0.554 | 0.53 | 0.529 | 0.553
NCI-H2009 | 0.769 | 0.867 | 0.705 | 0.791 | 0.841 | 0.132 | 0.121 | 0.14 | 0.138 | 0.158 | 0.427 | 0.464 | 0.421 | 0.451 | 0.402 | 0.34 | 0.344 | 0.424 | 0.374 | 0.397
NCI-H2023 | 0.545 | 0.501 | 0.458 | 0.457 | 0.378 | 0.259 | 0.216 | 0.247 | 0.187 | 0.225 | 0.309 | 0.375 | 0.343 | 0.277 | 0.266 | 0.197 | 0.25 | 0.178 | 0.153 | 0.158
NCI-H2085 | 0.848 | 0.865 | 0.692 | 0.735 | 0.689 | 0.313 | 0.329 | 0.299 | 0.264 | 0.297 | 0.573 | 0.559 | 0.395 | 0.503 | 0.521 | 0.457 | 0.454 | 0.257 | 0.476 | 0.438
NCI-H2087 | 0.814 | 0.903 | 0.759 | 0.772 | 0.966 | 0.158 | 0.137 | 0.185 | 0.161 | 0.143 | 0.41 | 0.317 | 0.423 | 0.351 | 0.41 | 0.356 | 0.327 | 0.388 | 0.49 | 0.233
NCI-H2126 | 0.681 | 0.615 | 0.617 | 0.606 | 0.594 | 0.39 | 0.362 | 0.371 | 0.343 | 0.383 | 0.485 | 0.45 | 0.41 | 0.48 | 0.455 | 0.528 | 0.431 | 0.414 | 0.475 | 0.426
NCI-H2170 | 0.459 | 0.45 | 0.428 | 0.459 | 0.464 | 0.316 | 0.248 | 0.266 | 0.252 | 0.279 | 0.388 | 0.402 | 0.387 | 0.403 | 0.414 | 0.464 | 0.338 | 0.481 | 0.422 | 0.421
NCI-H2228 | 0.706 | 0.593 | 0.51 | 0.533 | 0.582 | 0.33 | 0.237 | 0.256 | 0.251 | 0.265 | 0.214 | 0.194 | 0.172 | 0.291 | 0.187 | 0.23 | 0.295 | 0.237 | 0.21 | 0.265
NCI-H2342 | 0.569 | 0.512 | 0.531 | 0.667 | 0.641 | 0.649 | 0.54 | 0.482 | 0.468 | 0.583 | 0.436 | 0.34 | 0.352 | 0.411 | 0.49 | 0.501 | 0.456 | 0.431 | 0.515 | 0.547
NCI-H2347 | 0.928 | 0.95 | 0.795 | 0.887 | 0.75 | 0.266 | 0.337 | 0.244 | 0.261 | 0.286 | 0.388 | 0.353 | 0.351 | 0.384 | 0.26 | 0.382 | 0.253 | 0.326 | 0.501 | 0.34
NCI-H2405 | 0.791 | 0.774 | 0.731 | 0.767 | 0.74 | 0.419 | 0.362 | 0.385 | 0.426 | 0.431 | 0.364 | 0.353 | 0.33 | 0.335 | 0.382 | 0.505 | 0.474 | 0.532 | 0.459 | 0.488
NCI-H3122 | 0.987 | 0.993 | 0.831 | 0.691 | 0.852 | 0.167 | 0.147 | 0.172 | 0.141 | 0.11 | 0.368 | 0.45 | 0.391 | 0.37 | 0.402 | 0.463 | 0.579 | 0.315 | 0.454 | 0.488
PC-3 [JPC-3] | 1.01 | 1.04 | 0.991 | 0.891 | 0.936 | 0.601 | 0.582 | 0.531 | – | 0.681 | 0.454 | 0.461 | 0.408 | 0.461 | 0.463 | 0.7 | 0.602 | 0.588 | 0.512 | 0.631
PC-14 | 0.808 | 0.759 | 0.679 | 0.657 | 0.734 | 0.297 | 0.444 | 0.23 | 0.36 | 0.276 | 0.443 | 0.369 | 0.459 | 0.32 | 0.488 | 0.567 | 0.482 | 0.418 | 0.455 | 0.455
RERF-LC-KJ | 0.788 | 0.695 | 0.584 | 0.659 | 0.558 | 0.654 | 0.613 | 0.495 | 0.494 | 0.524 | 0.377 | 0.426 | 0.377 | 0.381 | 0.376 | 0.449 | 0.358 | 0.313 | 0.411 | 0.429
SK-LU-1 | 0.652 | 0.583 | 0.593 | 0.591 | 0.639 | 0.39 | 0.355 | 0.298 | 0.345 | 0.317 | 0.306 | 0.323 | 0.291 | 0.369 | 0.342 | 0.225 | 0.187 | 0.248 | 0.269 | 0.265
SK-MES-1 | 0.755 | 0.75 | 0.74 | 0.663 | 0.622 | 0.38 | 0.412 | 0.372 | 0.397 | 0.277 | 0.55 | 0.583 | 0.574 | 0.552 | 0.545 | 0.398 | 0.512 | 0.499 | 0.414 | 0.483
SW 900 | 0.578 | 0.498 | 0.545 | 0.57 | 0.512 | 0.604 | 0.733 | 0.536 | 0.717 | 0.432 | 0.43 | 0.492 | 0.371 | 0.324 | 0.45 | 0.317 | 0.273 | 0.25 | 0.35 | 0.244
SW 1573 | 0.585 | 0.555 | 0.546 | 0.544 | 0.519 | 0.3 | 0.311 | 0.291 | 0.303 | 0.281 | 0.205 | 0.238 | 0.175 | 0.182 | 0.12 | 0.42 | 0.309 | 0.352 | 0.345 | 0.365
UMC-11 | 0.376 | 0.415 | 0.374 | 0.44 | 0.468 | 0.267 | 0.299 | 0.252 | 0.348 | 0.295 | 0.281 | 0.249 | 0.261 | 0.294 | 0.269 | 0.272 | 0.288 | 0.257 | 0.297 | 0.277
